Reference: PubChem BioAssay AID330 (DTP/NCI, 2004)
“And” between values parts separate entries of the source, which are not always exact repeats. Equal values may be shown once. Inconclusive results and toxic doses are left out. Rule for the calls: active = survival T/C of 150% or more; inactive = T/C below 125% in these data.

System: P388 leukemia ip, CD2F1 mice, survival T/C
Test: NCI In Vivo Anticancer Drug Screen. Data for tumor model P388 Leukemia (intraperitoneal) in CD2F1 (CDF1) mice
Conditions: endpoint: median survival time, higher = longer survival
Summary of the method: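 Mice carrying the transplanted tumor received test compound or vehicle. Survival was recorded in each group, and the value is the treated-group measurement divided by that of the vehicle-treated control group.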

[1] = dose: 60.0 mg/kg/injection, schedule: Q01DX005 (ip), vehicle: saline with Tween-80
[2] = dose: 120.0 mg/kg/injection, schedule: Q01DX005 (ip), vehicle: saline with Tween-80
[3] = dose: 60.0 mg/kg/injection, schedule: Q01DX005 (ip), vehicle: saline
[4] = dose: 120.0 mg/kg/injection, schedule: Q01DX005 (ip), vehicle: saline
[5] = dose: 240.0 mg/kg/injection, schedule: Q01DX005 (ip), vehicle: saline
[6] = dose: 12.5 mg/kg/injection, schedule: Q01DX009 (ip), vehicle: Klucel (hydroxypropylcellulose) (HPC)
[7] = dose: 25.0 mg/kg/injection, schedule: Q01DX009 (ip), vehicle: Klucel (hydroxypropylcellulose) (HPC)
[8] = dose: 50.0 mg/kg/injection, schedule: Q01DX009 (ip), vehicle: Klucel (hydroxypropylcellulose) (HPC)
[9] = dose: 100.0 mg/kg/injection, schedule: Q01DX009 (ip), vehicle: Klucel (hydroxypropylcellulose) (HPC)
[10] = dose: 50.0 mg/kg/injection, schedule: Q01DX005 (ip), vehicle: saline with Tween-80
[11] = dose: 100.0 mg/kg/injection, schedule: Q04DX003 (ip), vehicle: saline with Tween-80

Measured: T/C

CCC1C2CC3C4N(C)c5ccccc5C45CC(C2C5O)N3C1O (centres undefined)
inactive: dose: 0.31 mg/kg/injection, schedule: Q01DX009 (ip), vehicle: saline 102 % of control and 106 % of control | dose: 0.62 mg/kg/injection, schedule: Q01DX009 (ip), vehicle: saline 99 % of control and 106 % of control and 121 % of control | dose: 1.25 mg/kg/injection, schedule: Q01DX009 (ip), vehicle: saline 102 % of control and 106 % of control and 95 % of control | dose: 2.5 mg/kg/injection, schedule: Q01DX009 (ip), vehicle: saline 99 % of control and 105 % of control (2×) | dose: 5.0 mg/kg/injection, schedule: Q01DX009 (ip), vehicle: saline 102 % of control | dose: 10.0 mg/kg/injection, schedule: Q01DX009 (ip), vehicle: saline 105 % of control | dose: 15.0 mg/kg/injection, schedule: Q01DX005 (ip), vehicle: saline with Tween-80 100 % of control | dose: 30.0 mg/kg/injection, schedule: Q01DX005 (ip), vehicle: saline with Tween-80 94 % of control | [1] 93 % of control and 100 % of control | [2] 93 % of control

C[Si]1(C)CC[Si](C)(C)OS(=O)(=O)O1
inactive: dose: 27.5 mg/kg/injection, schedule: Q01DX005 (ip), vehicle: Klucel (hydroxypropylcellulose) (HPC) 102 % of control | dose: 55.0 mg/kg/injection, schedule: Q01DX005 (ip), vehicle: Klucel (hydroxypropylcellulose) (HPC) 100 % of control

CSCCCCN=[N+]=[N-]
inactive: [3] 104 % of control | [4] 112 % of control

Cn1ccc(C#N)c(C#N)c1=O
inactive: dose: 25.0 mg/kg/injection, schedule: Q01DX005 (ip), vehicle: Klucel (hydroxypropylcellulose) (HPC) 97 % of control | dose: 50.0 mg/kg/injection, schedule: Q01DX005 (ip), vehicle: Klucel (hydroxypropylcellulose) (HPC) 99 % of control | dose: 100.0 mg/kg/injection, schedule: Q01DX005 (ip), vehicle: Klucel (hydroxypropylcellulose) (HPC) 106 % of control | dose: 200.0 mg/kg/injection, schedule: Q01DX005 (ip), vehicle: Klucel (hydroxypropylcellulose) (HPC) 97 % of control

C[Si](C)(C)/N=C(/O[Si](C)(C)C)C(F)(F)F
inactive: [3] 101 % of control | [4] 111 % of control | [5] 108 % of control

Nc1ncnc2ccccc12
inactive: [6] 107 % of control | [7] 89 % of control | [8] 108 % of control and 89 % of control | [9] 108 % of control

S=C(NCc1ccccc1)NNc1nnc(-c2ccccc2)c(-c2ccccc2)n1
inactive: dose: 12.5 mg/kg/injection, schedule: Q01DX005 (ip), vehicle: saline with Tween-80 96 % of control | dose: 25.0 mg/kg/injection, schedule: Q01DX005 (ip), vehicle: saline with Tween-80 94 % of control | [10] 91 % of control

CCNCc1cc(Nc2nc(NC3CCC(N(C)C)CC3)c3ccccc3n2)ccc1OC (centres undefined)
inactive: dose: 5.0 mg/kg/injection, schedule: Q01DX009 (ip), vehicle: saline sonified 100 % of control | dose: 10.0 mg/kg/injection, schedule: Q01DX009 (ip), vehicle: saline sonified 109 % of control | dose: 20.0 mg/kg/injection, schedule: Q01DX009 (ip), vehicle: saline sonified 113 % of control

COC(=O)CC1(C(=O)OC)C2=C(C(=O)c3ccccc3C2=O)N2CCCC21 (centres undefined)
inactive: [6] 99 % of control | [7] 100 % of control | [8] 106 % of control | [9] 103 % of control

CCN(CC)Cc1cc(C(CC(=O)c2ccccc2)S(=O)(=O)c2ccc(C)cc2)ccc1O (centres undefined)
inactive: dose: 12.5 mg/kg/injection, schedule: Q01DX009 (ip), vehicle: saline with Tween-80 88 % of control | dose: 25.0 mg/kg/injection, schedule: Q01DX009 (ip), vehicle: saline with Tween-80 89 % of control | dose: 50.0 mg/kg/injection, schedule: Q01DX009 (ip), vehicle: saline 93 % of control

Cc1cccc(Br)[n+]1[O-]
inactive: dose: 12.5 mg/kg/injection, schedule: Q01DX001 (ip), vehicle: saline 100 % of control | dose: 25.0 mg/kg/injection, schedule: Q01DX001 (ip), vehicle: saline 109 % of control | dose: 50.0 mg/kg/injection, schedule: Q01DX001 (ip), vehicle: saline 100 % of control

O=C(CCSCCCl)Nc1c(C(=O)O)cc([N+](=O)[O-])cc1[N+](=O)[O-]
inactive: dose: 3.13 mg/kg/injection, schedule: Q04DX003 (ip), vehicle: DMSO 94 % of control | dose: 6.25 mg/kg/injection, schedule: Q04DX003 (ip), vehicle: DMSO 100 % of control | dose: 12.5 mg/kg/injection, schedule: Q04DX003 (ip), vehicle: DMSO 102 % of control | dose: 25.0 mg/kg/injection, schedule: Q04DX003 (ip), vehicle: DMSO 111 % of control | dose: 50.0 mg/kg/injection, schedule: Q04DX003 (ip), vehicle: DMSO 102 % of control and 109 % of control | dose: 100.0 mg/kg/injection, schedule: Q04DX003 (ip), vehicle: DMSO 116 % of control

O=[n+]1ccn([O-])c2ccccc21.[O-][Cl+3]([O-])([O-])O.[Zn+2]
inactive: [11] 98 % of control

Cc1ccc2ccc3ccc(C)nc3c2n1.O=[N+]([O-])O.O=[N+]([O-])O.[Cu]
inactive: dose: 6.25 mg/kg/injection, schedule: Q04DX002 (ip), vehicle: saline 109 % of control | dose: 12.5 mg/kg/injection, schedule: Q04DX002 (ip), vehicle: saline 113 % of control

N#Cc1c2c(c(=O)n3c1[nH]c1ccccc13)CCC2
inactive: [1] 100 % of control | [2] 93 % of control | dose: 240.0 mg/kg/injection, schedule: Q01DX005 (ip), vehicle: saline with Tween-80 94 % of control

COc1ccc(C[N+]2=Cc3cc(OC)c(OC)cc3CC2)cc1
inactive: dose: 12.5 mg/kg/injection, schedule: Q01DX001 (ip), vehicle: saline + alcohol 100 % of control | dose: 25.0 mg/kg/injection, schedule: Q01DX001 (ip), vehicle: saline + alcohol 98 % of control | dose: 50.0 mg/kg/injection, schedule: Q01DX001 (ip), vehicle: saline + alcohol 98 % of control

CNC1C(O)C(OC2C(N)CC(N)C(OC3OC(CN)=CCC3N)C2O)OCC1(C)O (centres undefined)
inactive: dose: 62.5 mg/kg/injection, schedule: Q01DX009 (ip), vehicle: saline 104 % of control | dose: 125.0 mg/kg/injection, schedule: Q01DX009 (ip), vehicle: saline 104 % of control

C/C=C/C1OC(=O)C=C1Sc1ccccc1 (centres undefined)
inactive: [10] 114 % of control | dose: 100.0 mg/kg/injection, schedule: Q01DX005 (ip), vehicle: saline with Tween-80 117 % of control | dose: 200.0 mg/kg/injection, schedule: Q01DX005 (ip), vehicle: saline with Tween-80 114 % of control

CC(CC1(c2ccccc2)C(=O)NC(=O)NC1=O)OC(=O)c1ccc([N+](=O)[O-])cc1 (centres undefined)
inactive: [8] 103 % of control | [9] 100 % of control | dose: 200.0 mg/kg/injection, schedule: Q01DX009 (ip), vehicle: Klucel (hydroxypropylcellulose) (HPC) 99 % of control

C/C(=N\NC(=S)NC12CC3CC(CC(C3)C1)C2)c1ccccn1
inactive: [11] 113 % of control | dose: 200.0 mg/kg/injection, schedule: Q04DX003 (ip), vehicle: saline with Tween-80 104 % of control

NC(N)=N/N=C/C(O)C(O)C(O)C(O)CO (centres undefined)
inactive: [3] 100 % of control | [4] 100 % of control | [5] 106 % of control
